Test results reported in article PMC12670400, “LEKTI-Grafted Sunflower Trypsin Inhibitor: A Potential Therapeutic for Skin Diseases” (Journal of Medicinal Chemistry, 2025).
Read-outs that look alike come from different tables or passages of the source. Bridge positions count the residues as written; N and C are the ends. Peptide text beside a SMILES is read from it.

What was measured:
KLK5 = target: T1, KLK5 (Homo sapiens, UniProt Q9Y337); experiment: Protease activity assay: inhibition of recombinant KLK5 (Boc-VPR-AMC substrate); format: biochemical
T1 construct: purchased R&D Systems 1108-SE
T1 sequence (Q9Y337 23-293): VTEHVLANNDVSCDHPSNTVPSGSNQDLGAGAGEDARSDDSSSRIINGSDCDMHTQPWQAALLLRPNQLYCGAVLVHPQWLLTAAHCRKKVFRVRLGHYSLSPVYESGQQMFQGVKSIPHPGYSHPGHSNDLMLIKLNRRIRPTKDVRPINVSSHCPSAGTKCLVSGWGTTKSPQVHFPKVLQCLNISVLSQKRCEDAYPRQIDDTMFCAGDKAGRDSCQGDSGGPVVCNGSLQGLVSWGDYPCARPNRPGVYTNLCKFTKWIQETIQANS
Method: Inhibitory activity against KLK5 was evaluated using the fluorogenic substrate Boc-VPR-AMC for KLK5 (Table ). […] The P1–P1′ reactive site (Arg5 to Ser6) is critical for inhibitor binding, with the P1′ position contributing up to 50% of the total association energy. , The conserved serine at P1′ in Bowman-Birk inhibitors (BBIs) is essential for function. […] Preservation of serine in the P1′ position restored inhibitory activity seen in 5 and 6. Preserving the native serine restored efficacy to the nanomolar range (5: 31 ± 7 nM; 6: 114 ± 11 nM).
Methods for biological experiment
SFTI analogues were created by individual amino acid substitutions in PYMOL (Python Molecular Graphics System) using the existing solution NMR structure of native SFTI - 1 (1JBL) found in the RCSB (Research Collaboratory for Structural Bioinformatics) database. Residues of 2 were mutated as follows: L5R, I10H, and F12W with conserved SFTI-1 backbone structure. Other SFTI based analogues were further modified using PYMOL. Currently, there are no SFTI-1 and Kallikrein 5 co-crystal structures found in the RCSB database. Superimposing the existing crystal structure of SFTI-1 and Trypsin complex (4XOJ) with Kallikrein 5 crystal structure (2PSX) was performed with PYMOL. Ab-initio docking between KLK5 and 2 were performed with HADDOCK 2.4 1, 2, with binding active site parameter set to Arg2, Cys3, Thr4, Arg5, Ser6 for 2 and Ser195, His57, and Asp102 for KLK5 catalytic triad. PRODIGY 3-5, set at 25 °C, was used to predict dissociation constant and binding interactions of docked clusters. Structural visualization and alignment were performed with PYMOL 6, and comparative sequence analysis was performed with MEGA11 7.
A fluorescence spectrometer using SpectraMax® i3x plate reader (Molecular Devices, United States) was used to measure the relative fluorescence unit (RFU) on a 96-well black microplate (Grenier Bio-one, cat no. 655074). The wavelengths were set to 360/460 nm (excitation/emission) for the substrate Boc-VPR-AMC (Bachem AG, cat no. 4003460) and 320/405nm for the substrate Mca-RPKPVE-Nval-WRK(Dnp)-NH2 Fluorogenic MMP Substrate (R&D Systems Biotechne, cat no.ES002). The Boc-VPR-AMC stock solution was prepared by dissolving the solid form in dimethyl sulfoxide to 100 mM. Mca-RPKPVE-Nval-WRK(Dnp)-NH2 fluorogenic MMP Substrate is supplied as stock solution at 10.0 mg/mL in dimethyl sulfoxide. Boc-VPR-AMC was used as a substrate for KLK5, 8 and 14. Mca-RPKPVE-Nval-WRK(Dnp)-NH2 was used as a substrate for KLK7. The ligand-only solution serves as a negative control (minimum RFU, 100% inhibition), and enzyme-only was served as positive (maximum RFU, 0% inhibition). The activities of proteases were measured and readout against the standard curve made in serial dilutions of tested recombinant KLKs, ranging from 0nM to 60nM. Each assay was done in triplicates and repeated at least for three times […]
Assessment of analogue mediated inhibition of KLK5, KLK7, KLK8, and KLK14 […]
Recombinant KLK5 (R&D Systems, cat no. 1108-SE) was diluted to a final concentration of 10 nM in 1X PBS (pH 8.0). KLK5 was pre -incubated on ice for 1 hour with serial dilutions of SFTI-derived analogues to assess inhibitory activity. After incubation, 20 µL of each mixture was transferred to we lls of a 96-well microplate in triplicates. The enzymatic reaction was initiated by adding 100 µL of Boc -VPR-AMC substrate (final concentration 100 µM) to each well. Fluorescence (RFU) was measured using a SpectraMax® i3x plate reader with chamber temperature maintained at 37°C. Readings were started at 0 minutes (baseline) and another […]
Recombinant KLK7 (R&D Systems , cat no. 2624-SE) and KLK14 (R&D Systems, cat no. 2664-SE) were activated by adding 1 mM CaCl ₂ 0.05% v/v Brij-35 (Sigma, cat no. […]
incubated at 37°C for 1 hour. Reactions were stopped by adding EDTA to a final concentration of 50 mM (Sigma, cat no. EDS-100G) KLK8 (catalytic domain only; R&D Systems, cat no. 2025-SE-010) was activated separately with 11 nM lysyl […]

[1] = amide bond, 42-membered ring, then NH4HCO3 air oxidation, 2 steps
KLK14 = target: T2, KLK14 (UniProt Q9P0G3); experiment: enzyme inhibition assay (fluorogenic substrate); selectivity: inhibition of KLK7, KLK8 or KLK14 activity by the peptide, n = 3; substrates and conditions in the Supporting Information
T2 sequence (Q9P0G3 41-267, species assumed, looked up): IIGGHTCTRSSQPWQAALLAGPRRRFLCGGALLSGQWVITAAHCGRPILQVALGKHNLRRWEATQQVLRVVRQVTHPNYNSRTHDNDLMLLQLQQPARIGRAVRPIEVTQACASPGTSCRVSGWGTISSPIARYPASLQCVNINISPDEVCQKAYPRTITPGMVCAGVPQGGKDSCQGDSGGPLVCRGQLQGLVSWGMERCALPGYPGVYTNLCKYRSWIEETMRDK

KLK8 = target: T3, KLK8 (UniProt O60259 33-260); experiment: as above; details: both partners purified
T3 construct: Kallikrein 8 (KLK8); construct and source are in the Supporting Information
T3 sequence (looked up): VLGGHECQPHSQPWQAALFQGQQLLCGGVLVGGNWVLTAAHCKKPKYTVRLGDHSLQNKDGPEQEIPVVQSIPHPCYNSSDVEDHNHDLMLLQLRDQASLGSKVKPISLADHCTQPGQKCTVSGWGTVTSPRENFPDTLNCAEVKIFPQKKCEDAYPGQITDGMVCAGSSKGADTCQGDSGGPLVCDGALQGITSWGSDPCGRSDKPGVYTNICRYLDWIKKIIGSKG

[2] = target: Kallikrein-related peptidase 5 (KLK5) (UniProt Q9Y337 23-293); experiment: enzyme inhibition assay (fluorogenic substrate); inhibition of KLK5 activity by the peptide, fluorogenic substrate Boc-VPR-AMC, n = 3; conditions in the Supporting Information; details: both partners purified
KLK7 = KLK7 (Homo sapiens, UniProt P49862); experiment: enzyme inhibition assay (fluorogenic substrate); selectivity: inhibition of KLK7, KLK8 or KLK14 activity by the peptide, n = 3; substrates and conditions in the Supporting Information
[3] = MESNa/TCEP (N-to-S acyl shift, NCL), 0.1 M sodium phosphate pH 5.8, 50.0 °C
[4] = NaNO2, MPAA (NCL), TCEP, 6 M guanidinium chloride buffer, 1.0 mM, 25.0 °C

`CC[C@H](C)[C@@H]1NC(=O)[C@H](CO)NC(=O)[C@H](CCCNC(=N)N)NC(=O)[C@H]([C@@H](C)O)NC(=O)[C@@H]2CSSC[C@H](NC(=O)[C@H](Cc3c[nH]cn3)NC(=O)[C@@H]3CCCN3C(=O)[C@@H]3CCCN3C1=O)C(=O)N[C@@H](Cc1c[nH]c3ccccc13)C(=O)N1CCC[C@H]1C(=O)N[C@@H](CC(=O)O)C(=O)NCC(=O)N[C@@H](CCCNC(=N)N)C(=O)N2` [compound 2] (cyclo(CTRSIPPHCWPDGR); disulfide 1-9) showed an IC50 (KLK5; n = 3, 10 nM KLK5, Boc-VPR-AMC 100 µM, PBS pH 8.0, read-out: IC50 (n = 3)/nM for KLKs: KLK5) of 54 ± 3 nM.

With `N=C(N)NCCC[C@@H]1NC(=O)[C@H](Cc2c[nH]cn2)NC(=O)[C@@H]2CSSC[C@H](NC(=O)[C@H](CCC(=O)O)NC(=O)[C@@H]3CCCN3C(=O)[C@@H]3CCCN3C(=O)[C@H](Cc3ccc(O)cc3)NC(=O)[C@H](CO)NC1=O)C(=O)N[C@@H](Cc1c[nH]c3ccccc13)C(=O)N1CCC[C@H]1C(=O)N[C@@H](CC(N)=O)C(=O)NCC(=O)N[C@@H](Cc1ccccc1)C(=O)N2` [compound 8] the “increase in KLK5 inhibitory potency (IC50) compared to 2” value (KLK5; ratio of IC50 values) was 7 fold and the “increase in KLK5 inhibitory potency (IC50) relative to 1” value (KLK5; ratio of IC50 values) was 28 fold.

Work on GFCHREYPPHCWPN yielded a ring closure, yield after HPLC [1, 3] of 18%.

Work on GFCHRSYPPECWPN yielded a ring closure, yield after HPLC [1, 4] of 6%.

With GFCHRSYPPHCWPN the ring closure, yield after HPLC [1, 3] was 15%.

In the case of GFCTRENPPHCWPN, the ring closure, yield after HPLC [1, 3] is reported as 14%.

GFCTRSNPPECWPN showed a ring closure, yield after HPLC [1, 4] of 8%.

GFCTRSNPPHCWPN showed a ring closure, yield after HPLC [1, 3] of 15%.

GRCTRSIPPHCWPD showed a ring closure, yield after HPLC [1, 3] of 18%.

For GSCTRSSPPECWPN, the ring closure, yield after HPLC [1, 4] was 9%.

GYCTRSSPPECWPN showed a ring closure, yield after HPLC [1, 4] of 12%.

B1: SFTI analogue 9 (peptide)
peptide: cyclo(GSCTRSSPPECWPN)
modifications: disulfide 3-11 (inferred)
notes: SFTI scaffold grafted with residues of a further LEKTI domain, glutamic acid at position 10; source: synthetic peptide (hydrazide peptide, cyclised via native chemical ligation, oxidised, RP-HPLC purified)
Molecule B1 has an IC50 (KLK14) of over 1000 nM and an IC50 (KLK8) of over 1000 nM.

B2: SFTI analogue 10 (peptide)
peptide: cyclo(GYCTRSSPPECWPN)
modifications: disulfide 3-11 (inferred)
notes: as for B1
With B2 the IC50 (KLK14) was over 1000 nM and the IC50 (KLK8) was over 1000 nM.

B3: SFTI analogue 3 (peptide)
peptide: cyclo(GFCTRENPPHCWPN)
modifications: disulfide 3-11 (inferred)
notes: scaffold of analogue 2 grafted with residues of a LEKTI domain; source: synthetic peptide (Fmoc solid-phase synthesis, cyclised via N to S acyl shift, oxidised, RP-HPLC purified)
B3 gave an IC50 [2] of 1800 ± 58 nM.

B4: SFTI-1 triple mutant 2, cyclo-[…] (peptide)
peptide: cyclo(GRCTRSIPPHCWPD)
modifications: disulfide 3-11 (inferred)
Work on B4 yielded an IC50 (KLK14) of 24 nM and an IC50 (KLK7) of 534 nM.

B5: SFTI-1 triple mutant 2, cyclo-[GRCTRSIPPHCWPD] (peptide)
peptide: cyclo(GRCTRSIPPHCWPD)
modifications: disulfide 3-11 (inferred)
notes: numbers count on: the mature 14-residue cyclic peptide; source: synthetic peptide (Fmoc solid-phase synthesis, cyclised via N to S acyl shift, oxidised, RP-HPLC purified)
B5 showed an IC50 (KLK8) of 373 ± 31 nM.

B6: SFTI analogue 4 (peptide)
peptide: cyclo(GFCHREYPPHCWPN)
modifications: disulfide 3-11 (inferred)
notes: scaffold of analogue 2 grafted with residues of a LEKTI or LEKTI-like domain; source: synthetic peptide (Fmoc solid-phase synthesis, cyclised via N to S acyl shift, oxidised, RP-HPLC purified)
With B6 the IC50 [2] was 1490 ± 50 nM.

B7: SFTI analogue 6 (peptide)
peptide: cyclo(GFCHRSYPPHCWPN)
modifications: disulfide 3-11 (inferred)
notes: scaffold of analogue 2 grafted with residues of a LEKTI or LEKTI-like domain, serine kept at P1'; source: synthetic peptide (Fmoc solid-phase synthesis, cyclised via N to S acyl shift, oxidised, RP-HPLC purified)
For B7, the IC50 [2] was 114 ± 11 nM.

B8: SFTI analogue 5 (peptide)
peptide: cyclo(GFCTRSNPPHCWPN)
modifications: disulfide 3-11 (inferred)
notes: scaffold of analogue 2 grafted with residues of a LEKTI domain, serine kept at P1'; source: synthetic peptide (Fmoc solid-phase synthesis, cyclised via N to S acyl shift, oxidised, RP-HPLC purified)
In the case of B8, the IC50 [2] is reported as 31 ± 7 nM.
